# Source: patent US4582820A, “Orally administered biologically active peptides and proteins” (Research Corporation, priority 1982, dated 1986)
# Where “and” joins values, the source holds several entries; their conditions need not be identical. Identical values can stand only once. Like-named read-outs stand apart in the source and are kept apart here.
# How the values were obtained:
# [1] = test system: diabetic (streptozotocin-treated) rats; test: Intravenous administration in diabetic rats, plasma glucose; format: in vivo; conditions: for % Initial plasma glucose conc. / Actual plasma glucose: iv 0.5 μ/kg
# Experimental: (§1) The term "diabetic rat" in the following tests refers to rats having been treated with streptozoticin by intravenous injection at a dosage of 75 mg/kg at least 4 days prior to the experiments in question. All rats used in the experiments had been fasting 12-18 hours prior to the experiments. Blood samples were taken at appropriate intervals as disclosed in the tables from a vein cannula which was implanted in a jugular vein. During the experiments, rats were awake, were able to move freely and had access to water (but no food). Plasma glucose was measured on a Beckman Glucose Analyzer 2 employing the enzymatic reaction of β-D-glucose with oxygen and measuring oxygen consumption rather than hydrogen peroxide formation.
# A. Intravenous (iv) Administration of Regular and Modified Insulin in Diabetic Rats
# From 15 min to 45 min after iv administration, the induced hypoglycemic effect was more pronounced in regular-insulin-treated aminals.
# [2] = test system: diabetic (streptozotocin-treated) rats; test: Oral administration in diabetic rats, plasma glucose; format: in vivo, rat; conditions: for Glucose / Glucose Level (% initial level): unmodified insulin oral 80 μ/kg
# Experimental: as §1
# B. Oral Administration of Regular and Modified Insulin (at 80μ/kg) in Normal and Diabetic Rats.
# The three controls were regular insulin, a carrier complex of SDS:TEA, and a complex of albumin:SDS:TEA in the same weight ratio as than in the insulin complex; i.e., albumin:SDS:TEA=5:7.5:3.6.
# The results of oral administrations of modified insulin and carrier complex (SDS:TEA=1:1 by mole) in the amount equivalent to that in the sandwich complex of insulin calculated based on 80μof insulin per kg of rat in normal rats are shown in Tables 3 and 4. The results of oral administrations of modified insulin, regular insulin, carrier complex and the sandwich complex of albumin (albumin:SDS:TEA in a weight ratio of 5:7.5:3.6) in diabetic rats are shown in Tables 5, 6, 7 and 8 respectively.
# Mice = conditions: cited from earlier work; for LD50: Mice
# [3] = diabetic rats, 15 min, mean ± SD
# [4] = diabetic rats, 15 min, single rats
# [5] = diabetic rats, 30 min, mean ± SD
# [6] = diabetic rats, 30 min, single rats
# [7] = diabetic rats, 45 min, mean ± SD
# [8] = diabetic rats, 45 min, single rats
# [9] = diabetic rats, 60 min, mean ± SD
# [10] = diabetic rats, 60 min, single rats
# [11] = diabetic rats, 90 min, mean ± SD
# [12] = diabetic rats, 90 min, single rats
# [13] = diabetic rats, 120 min, mean ± SD
# [14] = diabetic rats, 120 min, single rats
# [15] = diabetic rats, 180 min, mean ± SD
# [16] = diabetic rats, 180 min, single rats
# [17] = diabetic rats, 300 min, mean ± SD
# [18] = diabetic rats, 300 min, single rats
molecule,measurement,setting,value
"Insulin: Insulin (bovine pancreas, crystalline; 25.5 μ/mg; Sigma)",% Initial plasma glucose conc.,[1]; [3],63.8%
same,Actual plasma glucose,[1]; [3],239 mg %
same,% Initial plasma glucose conc.,[1]; [4],46.1% and 63.8% and 57.7% and 84.5% and 47.9% and 82.5%
same,Actual plasma glucose,[1]; [4],197 mg % and 176 mg % and 214 mg % and 359 mg % and 113 mg % and 372 mg %
same,% Initial plasma glucose conc.,[1]; [5],50.0%
same,Actual plasma glucose,[1]; [5],185 mg %
same,% Initial plasma glucose conc.,[1]; [6],43.9% and 53.6% and 16.2% and 69.7% and 36.9% and 79.4%
same,Actual plasma glucose,[1]; [6],358 mg % and 159 mg % and 148 mg % and 60 mg % and 296 mg % and 87 mg %
same,% Initial plasma glucose conc.,[1]; [7],48.3%
same,Actual plasma glucose,[1]; [7],169 mg %
same,% Initial plasma glucose conc.,[1]; [8],36.5% and 59.1% and 31.0% and 56.2% and 41.5% and 65.3%
same,Actual plasma glucose,[1]; [8],296 mg % and 132 mg % and 163 mg % and 84 mg % and 239 mg % and 98 mg %
same,% Initial plasma glucose conc.,[1]; [9],49.2 ± 15.4%
same,Actual plasma glucose,[1]; [9],176 ± 83 mg %
same,% Initial plasma glucose conc.,[1]; [10],38.4% and 57.6% and 27.2% and 51.8% and 48.3% and 71.6%
same,Actual plasma glucose,[1]; [10],323 mg % and 139 mg % and 159 mg % and 101 mg % and 220 mg % and 114 mg %
same,% Initial plasma glucose conc.,[1]; [11],53.0 ± 9%
same,Actual plasma glucose,[1]; [11],190 ± 69 mg %
same,% Initial plasma glucose conc.,[1]; [12],45.4% and 53.6% and 50.4% and 46.1% and 51.7% and 70.7%
same,Actual plasma glucose,[1]; [12],319 mg % and 168 mg % and 148 mg % and 187 mg % and 196 mg % and 122 mg %
same,% Initial plasma glucose conc.,[1]; [13],50.1 ± 10.1%
same,Actual plasma glucose,[1]; [13],177 ± 32 mg %
same,% Initial plasma glucose conc.,[1]; [14],42.3% and 58.0% and 56.9% and 35.1% and 60.6% and 47.8%
same,Actual plasma glucose,[1]; [14],215 mg % and 153 mg % and 160 mg % and 211 mg % and 149 mg % and 143 mg %
same,% Initial plasma glucose conc.,[1]; [15],57.8%
same,Actual plasma glucose,[1]; [15],196 mg %
same,% Initial plasma glucose conc.,[1]; [16],58.8% and 59.8% and 76.3% and 37.9% and 67.8% and 45.9%
same,Actual plasma glucose,[1]; [16],207 mg % and 213 mg % and 165 mg % and 283 mg % and 161 mg % and 160 mg %
same,% Initial plasma glucose conc.,[1]; [17],65.7%
same,Actual plasma glucose,[1]; [17],225 mg %
same,% Initial plasma glucose conc.,[1]; [18],60.8% and 58.1% and 89.2% and 46.6% and 90.7% and 48.6%
same,Actual plasma glucose,[1]; [18],219 mg % and 220 mg % and 167 mg % and 331 mg % and 198 mg % and 214 mg %
same,"hypoglycemic effect (in words), rat #285","[1]; iv administration, diabetic rat #285 treated with both agents",progressive hypoglycemic effect
same,hypoglycemic effect (in words),"[1]; iv administration, diabetic rats","progressive, systemic, hypoglycemic effects for five hours in all animals"
same,systemic hypoglycemic effect (in words),[2]; oral administration,"does not result in a systemic, hypoglycemic effect"
same,Glucose,"[2]; 15 min, Mean ± Std. Dev.",273 ± 112 mg/100 ml
same,Glucose Level (% initial level),"[2]; 15 min, Mean ± Std. Dev.",134 ± 20%
same,Glucose,"[2]; 15 min, single rats",145 mg/100 ml and 371 mg/100 ml and 214 mg/100 ml and 363 mg/100 ml
same,Glucose Level (% initial level),"[2]; 15 min, single rats",119% and 155.2% and 146.6% and 115%
same,Glucose,"[2]; 30 min, Mean ± Std. Dev.",325 ± 28 mg/100 ml
same,Glucose Level (% initial level),"[2]; 30 min, Mean ± Std. Dev.",104.7 ± 19.8%
same,Glucose,"[2]; 30 min, single rats",293 mg/100 ml and 343 mg/100 ml and 340 mg/100 ml
same,Glucose Level (% initial level),"[2]; 30 min, single rats",122.6% and 107.9% and 83.5%
same,Glucose,"[2]; 45 min, Mean ± Std. Dev.",327 ± 82 mg/100 ml
same,Glucose Level (% initial level),"[2]; 45 min, Mean ± Std. Dev.",105.6 ± 31.2%
same,Glucose,"[2]; 45 min, single rats",270 mg/100 ml and 421 mg/100 ml and 290 mg/100 ml
same,Glucose Level (% initial level),"[2]; 45 min, single rats",113.0% and 132.4% and 71.3%
same,Glucose,"[2]; 60 min, Mean ± Std. Dev.",285 ± 87 mg/100 ml
same,Glucose Level (% initial level),"[2]; 60 min, Mean ± Std. Dev.",124.1 ± 57.9%
same,Glucose,"[2]; 60 min, single rats",152 mg/100 ml and 309 mg/100 ml and 272 mg/100 ml and 329 mg/100 ml and 410 mg/100 ml and 239 mg/100 ml
same,Glucose Level (% initial level),"[2]; 60 min, single rats",124.6% and 129.3% and 77.5% and 225.3% and 128.9% and 58.7%
same,Glucose,"[2]; 120 min, Mean ± Std. Dev.",270 ± 118 mg/100 ml
same,Glucose Level (% initial level),"[2]; 120 min, Mean ± Std. Dev.",121.4 ± 79.4%
same,Glucose,"[2]; 120 min, single rats",122 mg/100 ml and 288 mg/100 ml and 251 mg/100 ml and 392 mg/100 ml and 411 mg/100 ml and 157 mg/100 ml
same,Glucose Level (% initial level),"[2]; 120 min, single rats",100% and 120.5% and 71.5% and 268.5% and 129.2% and 38.6%
same,Glucose,"[2]; 180 min, Mean ± Std. Dev.",331 ± 127 mg/100 ml
same,Glucose Level (% initial level),"[2]; 180 min, Mean ± Std. Dev.",123.3 ± 76.1%
same,Glucose,"[2]; 180 min, single rats",296 mg/100 ml and 226 mg/100 ml and 502 mg/100 ml and 422 mg/100 ml and 211 mg/100 ml
same,Glucose Level (% initial level),"[2]; 180 min, single rats",123.9% and 64.5% and 243.8% and 132.7% and 51.8%
same,Glucose,"[2]; 300 min, Mean ± Std. Dev.",282 mg/100 ml
same,Glucose Level (% initial level),"[2]; 300 min, Mean ± Std. Dev.",116.1 ± 75.0%
same,Glucose,"[2]; 300 min, single rats",290 mg/100 ml and 189 mg/100 ml and 342 mg/100 ml and 391 mg/100 ml and 196 mg/100 ml
same,Glucose Level (% initial level),"[2]; 300 min, single rats",121.3% and 53.8% and 234.2% and 123.0% and 48.2%
Cn1ccnc1 [1-methylimidazole],LD50,Mice; ipr.,380 mg/kg
same,toxicity (in words),"Mice; mouse, in vivo",very slight
same,LD50,Mice; oral,1500 mg/kg
